Some test systems named below: MOLT-4; TK-10; K562; NCI-H226; HCC 2998; SF-295; COLO 205; OVCAR-8; KM12; SK-OV-3; SF-539; A549; PC-3; SK-MEL-28; CAKI-1; SF-268; M14; HCT-116; SNB-19; RPMI-8226.
Test in all cases: NCI tumour cell line growth inhibition, 48 h

SMILES strings stand for the structures.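 Growth conditions: 96-well plates. Treatment: test compound, 48 hours, 5 concentrations. Analysis: linear interpolation between bracketing concentrations; unreached endpoints set to highest concentration. GI50 is the concentration that inhibits growth by half.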 Active and inactive are the calls of the source. No stated cut-off is given here; in the data, active = GI50 up to about 1.1 µM and inactive = higher.

Regarding `O=C(/C=C/c1ccccc1)CCN1CCN(CCC(=O)/C=C/c2ccccc2)CC1`, the GI50 in the assay on MOLT-4 is 4.47 µM (inactive); in the assay on TK-10, 16.4 µM (inactive); with K562 it was 3.97 µM (inactive); with NCI-H226 it was 16.2 µM (inactive); in the assay with HCC 2998, 16.7 µM (inactive); in the assay on SF-295, 17.2 µM (inactive). Besides, the GI50 was 16.4 µM (inactive) in the assay with COLO 205; 16.3 µM (inactive) in the assay with OVCAR-8; 4.82 µM (inactive) in the assay with KM12; 13.5 µM (inactive) with SK-OV-3; 14.9 µM (inactive) in the assay with SF-539; 30.9 µM (inactive) with A549. The GI50 with PC-3 was 16.8 µM (inactive); with SK-MEL-28 it was 14.2 µM (inactive); in the assay on CAKI-1, 17.2 µM (inactive); in the assay on SF-268 it was 13.8 µM (inactive); with M14, 11.7 µM (inactive); in the assay with HCT-116, 2.16 µM (inactive). In addition, the figures for the GI50 in the assay on SNB-19 and in the assay with RPMI-8226 were 17.6 µM (inactive) and > 100 µM (inactive), respectively.
As to `CC1=CC23C(COC(=O)C24CO4)C(C(=O)O)=CC3C1C` (stereo not given), the GI50 in the assay on MOLT-4 was 17.4 µM (inactive); in the assay on TK-10, 21.2 µM (inactive); in the assay on K562, 4.85 µM (inactive); in the assay on NCI-H226, 15.6 µM (inactive); with HCC 2998 it was 15.4 µM (inactive); in the assay on SF-295, 24.3 µM (inactive). The GI50 in the assay on COLO 205 is 24.7 µM (inactive); in the assay on OVCAR-8, 15.9 µM (inactive); in the assay on KM12, 6.73 µM (inactive); with SK-OV-3 it was 4.65 µM (inactive); in the assay on SF-539 it was 15 µM (inactive); in the assay with A549, 26.1 µM (inactive). Besides, the GI50 in the assay with PC-3 is 11.9 µM (inactive); in the assay with SK-MEL-28 it was 2.3 µM (inactive); in the assay on CAKI-1, 9.79 µM (inactive); in the assay on SF-268, 4.93 µM (inactive); in the assay with M14 it was 7.55 µM (inactive); with HCT-116 it was 16 µM (inactive). Moreover, the results for the GI50 in the assay on SNB-19 and in the assay with RPMI-8226 were 5.33 µM (inactive) and 2.37 µM (inactive), respectively.
As to `CC(=O)O[C@H]1C(=O)[C@@]2(C)[C@H]([C@H](OC(=O)C3CCCCC3)[C@]3(O)C[C@H](OC(=O)[C@H](O)[C@@H](NC(=O)C4CCCCC4)C4CCCCC4)C(C)=C1C3(C)C)[C@]1(OC(C)=O)CO[C@@H]1C[C@@H]2O`, the GI50 with MOLT-4 was 0.0151 µM (active); with TK-10, 0.0451 µM (active); in the assay on K562 it was 0.0128 µM (active); with NCI-H226 it was 0.0311 µM (active); in the assay on HCC 2998 it was 0.0442 µM (active); with SF-295, 0.0321 µM (active). Also, the GI50 in the assay on COLO 205 was 0.00615 µM (active); with OVCAR-8, 0.0228 µM (active); with KM12, 0.0101 µM (active); with SK-OV-3, 0.029 µM (active); in the assay on SF-539, 0.0366 µM (active); in the assay on A549 it was 0.0326 µM (active). For the same compound, the GI50 is 0.016 µM (active) in the assay on PC-3; 0.479 µM (active) in the assay on SK-MEL-28; 0.105 µM (active) in the assay on CAKI-1; 0.408 µM (active) in the assay with SF-268; 0.00889 µM (active) in the assay with M14; 0.00439 µM (active) in the assay with HCT-116. Also, the GI50 was 0.057 µM (active) in the assay on SNB-19 and 0.0025 µM (active) in the assay with RPMI-8226.
`Nc1ccc(CCN2CCN(CCCc3ccccc3)CC2)cc1`: the GI50 in the assay on MOLT-4 was 50.4 µM (inactive); in the assay with TK-10, > 100 µM (inactive); with K562, 24.2 µM (inactive); in the assay with NCI-H226 it was > 100 µM (inactive); with HCC 2998, 34.4 µM (inactive); in the assay with SF-295, > 100 µM (inactive). The GI50 in the assay on COLO 205 is 27.7 µM (inactive); in the assay with OVCAR-8, 47.1 µM (inactive); in the assay with KM12, 82.8 µM (inactive); with SK-OV-3, > 100 µM (inactive); in the assay on SF-539, 80.5 µM (inactive); with A549 it was > 100 µM (inactive). Also, the GI50 is > 100 µM (inactive) with PC-3; > 100 µM (inactive) in the assay with SK-MEL-28; > 100 µM (inactive) in the assay on CAKI-1; > 100 µM (inactive) in the assay on SF-268; 39.4 µM (inactive) with M14; 31.9 µM (inactive) in the assay with HCT-116. Also, the GI50 with SNB-19 is > 100 µM (inactive); in the assay with RPMI-8226, 46.7 µM (inactive).
For `O=C1/C(=C(/Br)I)c2ccccc2-c2ccccc21`, the GI50 was 2.21 µM (inactive) with MOLT-4; 8.97 µM (inactive) in the assay on TK-10; 2.36 µM (inactive) with K562; 18.8 µM (inactive) in the assay on NCI-H226; 3.76 µM (inactive) in the assay with HCC 2998; 17 µM (inactive) in the assay with SF-295. For the same compound, the GI50 in the assay on COLO 205 was 2.04 µM (inactive); in the assay on OVCAR-8 it was 16.9 µM (inactive); in the assay with KM12 it was 14.2 µM (inactive); in the assay on SK-OV-3, 15.7 µM (inactive); in the assay with SF-539, 14.6 µM (inactive); in the assay on A549 it was 15.9 µM (inactive). For the same compound, the GI50 in the assay with PC-3 was 8.34 µM (inactive); with SK-MEL-28, 21.5 µM (inactive); in the assay on CAKI-1, 5.57 µM (inactive); with SF-268 it was 14.1 µM (inactive); in the assay with M14, 9.95 µM (inactive); in the assay with HCT-116 it was 7.85 µM (inactive). The GI50 with SNB-19 was 13.9 µM (inactive); in the assay with RPMI-8226, 2.97 µM (inactive).
Regarding `O=C(O)Cc1cccc2c(=O)c3ccccc3oc12`, the GI50 in the assay on MOLT-4 was > 100 µM (inactive); in the assay on TK-10 it was > 100 µM (inactive); in the assay on K562, > 100 µM (inactive); with NCI-H226, > 100 µM (inactive); in the assay with HCC 2998, 22 µM (inactive); with SF-295, > 100 µM (inactive). In addition, the GI50 in the assay with COLO 205 is > 100 µM (inactive); with OVCAR-8, > 100 µM (inactive); in the assay with KM12, > 100 µM (inactive); in the assay with SK-OV-3 it was 17.7 µM (inactive); in the assay on SF-539 it was > 100 µM (inactive); in the assay with A549 it was > 100 µM (inactive). Also, the GI50 in the assay with PC-3, with SK-MEL-28, with CAKI-1, in the assay with SF-268, in the assay with M14 and in the assay on HCT-116 was > 100 µM (inactive) each time. Besides, the GI50 in the assay on SNB-19 and with RPMI-8226 was > 100 µM (inactive) throughout.
In the case of `Nc1ncnc2c1ncn2C1OC(CO)C(O)C1NS(=O)(=O)c1ccccc1` (stereo not given), the GI50 in the assay with MOLT-4, in the assay on TK-10, with K562, in the assay on NCI-H226, with HCC 2998 and in the assay with SF-295 was > 100 µM (inactive) in each case. Besides, the GI50 in the assay with COLO 205, in the assay with OVCAR-8, in the assay on KM12, with SK-OV-3, with SF-539 and in the assay on A549 was > 100 µM (inactive) throughout. The GI50 in the assay on PC-3, with SK-MEL-28, with CAKI-1, with SF-268, in the assay on M14 and in the assay on HCT-116 was > 100 µM (inactive) throughout. The GI50 in the assay with SNB-19 and in the assay on RPMI-8226 was > 100 µM (inactive) throughout.
In the case of `C#CCN1CCN(C(=S)N/N=C(\C)c2ccccn2)CC1`, the GI50 is 0.01 µM (active) in the assay on MOLT-4; 3.28 µM (inactive) in the assay with TK-10; 0.01 µM (active) with K562; 1.19 µM (inactive) with NCI-H226; 0.568 µM (active) with HCC 2998; 0.632 µM (active) with SF-295. In addition, the GI50 was 0.01 µM (active) in the assay on COLO 205; 0.01 µM (active) in the assay with OVCAR-8; 0.161 µM (active) in the assay with KM12; 0.877 µM (active) in the assay with SK-OV-3; 1.49 µM (inactive) in the assay with SF-539; 3.12 µM (inactive) with A549. Moreover, the GI50 is 0.00975 µM (active) with PC-3; 1.36 µM (inactive) in the assay with SK-MEL-28; 1.42 µM (inactive) in the assay with CAKI-1; 0.889 µM (active) with SF-268; 0.0263 µM (active) in the assay on M14; 0.001 µM (active) with HCT-116. The GI50 was 2.99 µM (inactive) in the assay on SNB-19 and 0.01 µM (active) in the assay on RPMI-8226.

The record behind these values is ChEMBL document CHEMBL1201862, “PubChem BioAssay data set” (2004).
